According to patent US20260085053A1, “BENZOFURAN DERIVATIVES AS SIK INHIBITORS AND THE USE THEREOF” (BEONE MEDICINES I GMBH, priority 2023, published 2026):

Legend:
[1] = molecular target: T1, SIK2 kinase (full length, Thermo Fisher) (Homo sapiens, UniProt Q9H0K1); test: Biochemical activities determination for SIK2 protein (TR-FRET); settings: 80 uM ATP, 0.5 μM substrate
T1 construct: SIK2 kinase (full length, Thermo Fisher); purchased Thermo Fisher
Procedure, shortened: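 Full-length SIK2 preincubated 60 min with 0–10 μM compound, then reacted 180 min at room temperature with 80 uM ATP and 0.5 μM biotinylated substrate (pH 7.5 Tris/MgCl2 buffer). Phosphorylation detected by TR-FRET (665/620 nm ratio, cryptate antibody/streptavidin-XL665) after overnight incubation; IC50 from four-parameter logistic fit.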

[2] = molecular target: T2, SIK1 kinase (aa1-303, Thermo Fisher) (Homo sapiens, UniProt P57059); test: Biochemical activities determination for SIK1 protein (TR-FRET); settings: 110 uM ATP, 0.5 μM STK1 substrate
T2 construct: SIK1 kinase (aa1-303, Thermo Fisher); purchased Thermo Fisher
Procedure, shortened: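 TR-FRET kinase assay with SIK1 (aa1-303), 110 uM ATP, 0.5 μM STK1 substrate and 0-10 μM compound in Tris pH 7.5 with MgCl2, EGTA, DTT, Triton X-100. Enzyme preincubated with compound 60 min, reaction 180 min at room temperature; 665/620 nm ratio after overnight detection; IC50 from four-parameter logistic fit.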

[3] = molecular target: T3, SIK3 kinase (aa59-365, Thermo Fisher) (Homo sapiens, UniProt Q9Y2K2); test: Biochemical activities determination for SIK3 protein (TR-FRET); settings: 125 uM ATP, 0.5 μM STK1 substrate
T3 construct: SIK3 kinase (aa59-365, Thermo Fisher); purchased Thermo Fisher
Procedure, shortened: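 SIK3 (aa59-365) was preincubated with compound (0-10 μM) for 60 min at room temperature in Tris buffer pH 7.5. The reaction was then started with 125 uM ATP and 0.5 μM STK1 substrate and run 180 min at room temperature. Phospho-substrate was detected by HTRF (665/620 nm ratio), and IC50 came from a four-parameter logistic fit.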

T3 sequence (Q9Y2K2 59-365): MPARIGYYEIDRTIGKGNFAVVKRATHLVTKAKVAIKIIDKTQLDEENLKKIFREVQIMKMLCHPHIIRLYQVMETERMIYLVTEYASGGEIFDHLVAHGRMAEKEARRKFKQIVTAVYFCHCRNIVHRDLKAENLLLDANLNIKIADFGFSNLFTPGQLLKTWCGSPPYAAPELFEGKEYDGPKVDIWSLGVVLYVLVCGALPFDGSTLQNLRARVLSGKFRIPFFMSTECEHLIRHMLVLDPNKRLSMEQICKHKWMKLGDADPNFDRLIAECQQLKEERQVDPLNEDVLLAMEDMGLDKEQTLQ
T2 sequence (P57059 1-303): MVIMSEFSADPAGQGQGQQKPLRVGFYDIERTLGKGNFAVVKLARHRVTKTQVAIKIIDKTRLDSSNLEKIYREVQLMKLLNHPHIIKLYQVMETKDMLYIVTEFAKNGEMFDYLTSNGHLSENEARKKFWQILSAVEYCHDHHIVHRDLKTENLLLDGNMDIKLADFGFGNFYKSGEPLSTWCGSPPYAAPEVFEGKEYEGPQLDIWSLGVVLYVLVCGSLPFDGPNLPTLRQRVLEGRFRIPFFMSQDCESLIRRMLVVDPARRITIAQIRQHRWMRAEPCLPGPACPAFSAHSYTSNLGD
T1 sequence (Q9H0K1 whole entry): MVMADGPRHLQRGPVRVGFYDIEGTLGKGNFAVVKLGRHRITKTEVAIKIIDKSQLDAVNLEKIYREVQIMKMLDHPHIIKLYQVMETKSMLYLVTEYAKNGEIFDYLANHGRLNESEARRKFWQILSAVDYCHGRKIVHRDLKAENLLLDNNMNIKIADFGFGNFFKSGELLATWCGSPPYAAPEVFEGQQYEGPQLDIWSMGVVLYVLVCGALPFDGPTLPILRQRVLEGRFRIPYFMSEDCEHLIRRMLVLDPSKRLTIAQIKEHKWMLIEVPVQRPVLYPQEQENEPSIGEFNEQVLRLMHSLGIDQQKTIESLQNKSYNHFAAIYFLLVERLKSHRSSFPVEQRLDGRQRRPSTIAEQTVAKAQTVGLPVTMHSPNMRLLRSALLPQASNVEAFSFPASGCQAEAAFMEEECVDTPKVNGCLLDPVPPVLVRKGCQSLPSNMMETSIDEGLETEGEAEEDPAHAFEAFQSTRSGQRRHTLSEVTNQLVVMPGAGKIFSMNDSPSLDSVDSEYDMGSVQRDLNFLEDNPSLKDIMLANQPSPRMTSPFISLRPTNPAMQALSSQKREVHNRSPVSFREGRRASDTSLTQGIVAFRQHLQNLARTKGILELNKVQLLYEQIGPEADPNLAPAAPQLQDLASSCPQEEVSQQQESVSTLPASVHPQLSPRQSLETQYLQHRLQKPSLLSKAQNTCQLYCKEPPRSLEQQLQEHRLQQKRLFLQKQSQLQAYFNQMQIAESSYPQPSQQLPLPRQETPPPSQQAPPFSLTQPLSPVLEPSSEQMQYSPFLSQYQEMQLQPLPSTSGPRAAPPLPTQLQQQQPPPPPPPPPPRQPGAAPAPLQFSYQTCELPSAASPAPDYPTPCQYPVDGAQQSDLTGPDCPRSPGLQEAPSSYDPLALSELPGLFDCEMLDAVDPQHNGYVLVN

| SMILES | IC50 [1] | IC50 [2] | IC50 [3] |
| --- | --- | --- | --- |
| CC(C)(O)COc1cc(-c2coc3cc(OCCN4CCCC4)ccc23)cc(OC(F)F)c1C(=O)NC1CC1 [Compound 108, N-cyclopropyl-2-(difluoromethoxy)-6-(2-hydroxy-2-methylpropoxy)-4-(6-(2-(pyrrolidin-1-yl)ethoxy)benzofuran-3-yl)benzamide] | 2780 nM | > 10000 nM | > 10000 nM |
| COc1cc(-c2coc3cc(-c4cnn(C5CCOCC5)c4)ccc23)cc2c1C(=O)N(CC(F)(F)F)CC2 [Compound 50, 8-methoxy-6-(6-(1-(tetrahydro-2H-pyran-4-yl)-1H-pyrazol-4-yl)benzofuran-3-yl)-2-(2,2,2-trifluoroethyl)-3,4-dihydroisoquinolin-1 (2H)-one] | 17 nM | 347 nM | 34 nM |
| COc1cc(-c2coc3cc(OCCN4CCCCC4)ccc23)cc2c1C(=O)N(CC(F)(F)F)CC2 [Compound 64, 8-methoxy-6-(6-(2-(piperidin-1-yl)ethoxy)benzofuran-3-yl)-2-(2,2,2-trifluoroethyl)-3,4-dihydroisoquinolin-1 (2H)-one] | 73 nM | > 10000 nM | 415 nM |
| COc1cc(-c2coc3cc(OCCN4CCCC4)ccc23)cc(OC(F)F)c1C(=O)NC1CCCC1N (racemic) [Compound 130, N-(2-aminocyclopentyl)-2-(difluoromethoxy)-6-methoxy-4-(6-(2-(pyrrolidin-1-yl)ethoxy)benzofuran-3-yl)benzamide] | 103 nM | > 10000 nM | 359 nM |
| COc1cc(-c2coc3cc(OCCN4CCC[C@@H]4C)ccc23)cc(OC(F)F)c1C(=O)N[C@@H]1C[C@@H]1F [Compound 80, 2-(difluoromethoxy)-N-((1R,2S)-2-fluorocyclopropyl)-6-methoxy-4-(6-(2-((S)-2-methylpyrrolidin-1-yl)ethoxy)benzofuran-3-yl)benzamide] | 20 nM | 2850 nM | 54 nM |
| COc1cc(-c2coc3cc(OCCN4CCCC4)ccc23)cc(OC(F)F)c1C(=O)N[C@H]1CCC[C@H]1O [Compound 126, 2-(difluoromethoxy)-N-((1S,2R)-2-hydroxycyclopentyl)-6-methoxy-4-(6-(2-(pyrrolidin-1-yl)ethoxy)benzofuran-3-yl)benzamide] | 224 nM | > 10000 nM | 878 nM |
| COc1cc(-c2coc3cc(-c4cn(C)nc4F)ccc23)cc2c1C(=O)N(CC(F)(F)F)CC2 [Compound 22, 6-(6-(3-fluoro-1-methyl-1H-pyrazol-4-yl)benzofuran-3-yl)-8-methoxy-2-(2,2,2-trifluoroethyl)-3,4-dihydroisoquinolin-1 (2H)-one] | 79 nM | 5920 nM | 127 nM |
| COc1cc(-c2coc3cc(-c4cnn(C)c4)ccc23)cc(OC(F)F)c1C(=O)NC1CC1 [Compound 132, N-cyclopropyl-2-(difluoromethoxy)-6-methoxy-4-(6-(1-methyl-1H-pyrazol-4-yl)benzofuran-3-yl)benzamide] | 13 nM | 124 nM | 15 nM |
| COc1cc(-c2coc3cc(-c4cnn(C)c4)ccc23)cc2c1C(=O)N(CC(F)(F)F)CC2 [Example 1, 8-methoxy-6-(6-(1-methyl-1H-pyrazol-4-yl)benzofuran-3-yl)-2-(2,2,2-trifluoroethyl)-3,4-dihydroisoquinolin-1 (2H)-one] | 10 nM | 303 nM | 19 nM |
| COc1cc(-c2coc3cc(OCCN4CCN(C)CC4)ccc23)cc(OC(F)F)c1C(=O)N[C@@H]1C[C@@H]1F [Compound 83, 2-(difluoromethoxy)-N-((1R,2S)-2-fluorocyclopropyl)-6-methoxy-4-(6-(2-(4-methylpiperazin-1-yl)ethoxy)benzofuran-3-yl)benzamide] | 13 nM | 737 nM | 75 nM |
| CCn1cc(-c2ccc3c(-c4cc5c(c(OC)c4)C(=O)N(CC(F)(F)F)CC5)coc3c2)cn1 [Example 2, 6-(6-(1-ethyl-1H-pyrazol-4-yl)benzofuran-3-yl)-8-methoxy-2-(2,2,2-trifluoroethyl)-3,4-dihydroisoquinolin-1 (2H)-one] | 15 nM | 375 nM | 28 nM |
| CN1CCC(n2cc(-c3ccc4c(-c5cc6c(c(OC(F)F)c5)C(=O)N(CC(F)(F)F)CC6)coc4c3)cn2)C1 (stereo not drawn) [Compound 47, 8-(difluoromethoxy)-6-(6-(1-(1-methylpyrrolidin-3-yl)-1H-pyrazol-4-yl)benzofuran-3-yl)-2-(2,2,2-trifluoroethyl)-3,4-dihydroisoquinolin-1 (2H)-one] | 3 nM | 335 nM | 33 nM |
| COc1cc(-c2coc3cc(OCCN4CCCC4)ccc23)cc(OC(F)F)c1C(=O)NC1CCCC1 [Compound 128, N-cyclopentyl-2-(difluoromethoxy)-6-methoxy-4-(6-(2-(pyrrolidin-1-yl)ethoxy)benzofuran-3-yl)benzamide] | 156 nM | > 10000 nM | 812 nM |
| COc1cc(-c2coc3cc(OCCN4CCCC4)ccc23)cc2c1C(=O)N(CC#N)CC2 [Compound 65, 2-(8-methoxy-1-oxo-6-(6-(2-(pyrrolidin-1-yl)ethoxy)benzofuran-3-yl)-3,4-dihydroisoquinolin-2 (1H)-yl) acetonitrile] | 103 nM | > 10000 nM | 313 nM |
| COc1cc(-c2coc3cc(-c4cnn(C)c4)ccc23)cc2c1C(=O)N(CC(F)(F)F)CC2(C)C [Compound 33, 8-methoxy-4,4-dimethyl-6-(6-(1-methyl-1H-pyrazol-4-yl)benzofuran-3-yl)-2-(2,2,2-trifluoroethyl)-3,4-dihydroisoquinolin-1 (2H)-one] | 82 nM | 9100 nM | 156 nM |
| O=C(NC1CC1)c1c(OC(F)F)cc(-c2coc3cc(OCCN4CCCC4)ccc23)cc1O[C@H]1CC[C@@H](O)CC1 [Compound 102, N-cyclopropyl-2-(difluoromethoxy)-6-(((1s,4s)-4-hydroxycyclohexyl)oxy)-4-(6-(2-(pyrrolidin-1-yl)ethoxy)benzofuran-3-yl)benzamide] | 2480 nM | > 10000 nM | > 10000 nM |
| CC[C@H]1CCN(CCOc2ccc3c(-c4cc(OC)c(C(=O)N[C@@H]5C[C@@H]5F)c(OC(F)F)c4)coc3c2)C1 [Compound 96, 2-(difluoromethoxy)-4-(6-(2-((S)-3-ethylpyrrolidin-1-yl)ethoxy)benzofuran-3-yl)-N-((1R,2S)-2-fluorocyclopropyl)-6-methoxybenzamide] | 22 nM | 2040 nM | 43 nM |
| COc1cc(-c2coc3cc(OCCCN4CCOCC4)ccc23)cc(OC(F)F)c1C(=O)N[C@@H]1C[C@@H]1F [Compound 86, 2-(difluoromethoxy)-N-((1R,2S)-2-fluorocyclopropyl)-6-methoxy-4-(6-(3-morpholinopropoxy)benzofuran-3-yl)benzamide] | 18 nM | 562 nM | 43 nM |
